Source: PubChem BioAssay (NCI)
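96-well plates; 48 h exposure; 5 concentrations. Endpoints by linear interpolation between flanking doses. Not reached: highest tested concentration assigned. TGI: total growth inhibition.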

Experiments:
Assay in all cases: DTP human tumour cell line panel, 48 h
786-0 renal = system: 786-0 renal
A498 renal = system: A498 renal
A549 NSCLC = system: A549 NSCLC
ACHN renal = system: ACHN renal
BT-549 breast = system: BT-549 breast
CAKI-1 renal = system: CAKI-1 renal
CCRF-CEM leukemia = system: CCRF-CEM leukemia
COLO 205 colon = system: COLO 205 colon
DU-145 prostate = system: DU-145 prostate
EKVX NSCLC = system: EKVX NSCLC
HCC-2998 colon = system: HCC-2998 colon
HCT-116 colon = system: HCT-116 colon
HCT-15 colon = system: HCT-15 colon
HL-60(TB) leukemia = system: HL-60(TB) leukemia
HOP-62 NSCLC = system: HOP-62 NSCLC
HOP-92 NSCLC = system: HOP-92 NSCLC
HS 578T breast = system: HS 578T breast
HT29 colon = system: HT29 colon
IGROV1 ovarian = system: IGROV1 ovarian
K-562 leukemia = system: K-562 leukemia
KM12 colon = system: KM12 colon
LOX IMVI melanoma = system: LOX IMVI melanoma
M14 melanoma = system: M14 melanoma
MALME-3M melanoma = system: MALME-3M melanoma
MCF7 breast = system: MCF7 breast
MDA-MB-231 breast = system: MDA-MB-231 breast
MDA-MB-435 = system: MDA-MB-435
MDA-N = system: MDA-N
MOLT-4 leukemia = system: MOLT-4 leukemia
NCI-H226 lung = system: NCI-H226 lung
NCI-H23 lung = system: NCI-H23 lung
NCI-H460 lung = system: NCI-H460 lung
NCI-H522 lung = system: NCI-H522 lung
NCI/ADR-RES ovarian = system: NCI/ADR-RES ovarian
OVCAR-3 ovarian = system: OVCAR-3 ovarian
OVCAR-4 ovarian = system: OVCAR-4 ovarian
OVCAR-5 ovarian = system: OVCAR-5 ovarian
OVCAR-8 ovarian = system: OVCAR-8 ovarian
PC-3 prostate = system: PC-3 prostate
RPMI-8226 leukemia = system: RPMI-8226 leukemia
RXF 393 renal = system: RXF 393 renal
SF-268 CNS = system: SF-268 CNS
SF-295 CNS = system: SF-295 CNS
SK-MEL-2 melanoma = system: SK-MEL-2 melanoma
SK-MEL-28 melanoma = system: SK-MEL-28 melanoma
SK-MEL-5 melanoma = system: SK-MEL-5 melanoma
SK-OV-3 ovarian = system: SK-OV-3 ovarian
SN12C renal = system: SN12C renal
SNB-19 CNS = system: SNB-19 CNS
SNB-75 CNS = system: SNB-75 CNS
SW-620 colon = system: SW-620 colon
T-47D breast = system: T-47D breast
TK-10 renal = system: TK-10 renal
U251 CNS = system: U251 CNS
UACC-257 melanoma = system: UACC-257 melanoma
UACC-62 melanoma = system: UACC-62 melanoma
UO-31 renal = system: UO-31 renal
SF-539 CNS = system: SF-539 CNS
SR leukemia = system: SR leukemia

With `OCC(O)CNc1ncnc2ccccc12` (configuration not stated) the TGI (786-0 renal) was > 100 µM, the TGI (A498 renal) was > 100 µM and the TGI (A549 NSCLC) was > 100 µM. The TGI (ACHN renal) was > 100 µM, the TGI (BT-549 breast) was > 100 µM and the TGI (CAKI-1 renal) was > 100 µM. The TGI (CCRF-CEM leukemia) was > 100 µM, the TGI (COLO 205 colon) was > 100 µM and the TGI (DU-145 prostate) was > 100 µM. The TGI (EKVX NSCLC) was > 100 µM, the TGI (HCC-2998 colon) was > 100 µM and the TGI (HCT-116 colon) was > 100 µM. The TGI (HCT-15 colon) was > 100 µM, the TGI (HL-60(TB) leukemia) was > 100 µM and the TGI (HOP-62 NSCLC) was > 100 µM. For the same compound, the TGI (HOP-92 NSCLC) was > 100 µM, the TGI (HS 578T breast) was > 100 µM and the TGI (HT29 colon) was > 100 µM. For the same compound, the TGI (IGROV1 ovarian) was > 100 µM, the TGI (K-562 leukemia) was > 100 µM and the TGI (KM12 colon) was > 100 µM. For the same compound, the TGI (LOX IMVI melanoma) was > 100 µM, the TGI (M14 melanoma) was > 100 µM and the TGI (MALME-3M melanoma) was > 100 µM. The TGI (MCF7 breast) was > 100 µM, the TGI (MDA-MB-231 breast) was > 100 µM and the TGI (MDA-MB-435) was > 100 µM. For the same compound, the TGI (MDA-N) was > 100 µM, the TGI (MOLT-4 leukemia) was > 100 µM and the TGI (NCI-H226 lung) was > 100 µM. For the same compound, the TGI (NCI-H23 lung) was > 100 µM, the TGI (NCI-H460 lung) was > 100 µM and the TGI (NCI-H522 lung) was > 100 µM. The TGI (NCI/ADR-RES ovarian) was > 100 µM, the TGI (OVCAR-3 ovarian) was > 100 µM and the TGI (OVCAR-4 ovarian) was > 100 µM. For the same compound, the TGI (OVCAR-5 ovarian) was > 100 µM, the TGI (OVCAR-8 ovarian) was > 100 µM and the TGI (PC-3 prostate) was > 100 µM. For the same compound, the TGI (RPMI-8226 leukemia) was > 100 µM, the TGI (RXF 393 renal) was > 100 µM and the TGI (SF-268 CNS) was > 100 µM. The TGI (SF-295 CNS) was > 100 µM, the TGI (SK-MEL-2 melanoma) was > 100 µM and the TGI (SK-MEL-28 melanoma) was > 100 µM. For the same compound, the TGI (SK-MEL-5 melanoma) was > 100 µM, the TGI (SK-OV-3 ovarian) was > 100 µM and the TGI (SN12C renal) was > 100 µM. For the same compound, the TGI (SNB-19 CNS) was > 100 µM, the TGI (SNB-75 CNS) was > 100 µM and the TGI (SW-620 colon) was > 100 µM. The TGI (T-47D breast) was > 100 µM, the TGI (TK-10 renal) was > 100 µM and the TGI (U251 CNS) was > 100 µM. For the same compound, the TGI (UACC-257 melanoma) was > 100 µM, the TGI (UACC-62 melanoma) was > 100 µM and the TGI (UO-31 renal) was > 100 µM.

`COc1ccc2c3c1OC1C(OC)(OC)C=C[C@@]4(Br)[C@@H](C2)N(CC2CC2)CC[C@]314` (some centres not stated) was tested, and the TGI (786-0 renal) was > 100 µM, the TGI (A498 renal) was > 100 µM and the TGI (A549 NSCLC) was > 100 µM. The TGI (ACHN renal) was > 100 µM, the TGI (CAKI-1 renal) was > 100 µM and the TGI (CCRF-CEM leukemia) was > 100 µM. The TGI (COLO 205 colon) was 94.1 µM, the TGI (DU-145 prostate) was > 100 µM and the TGI (EKVX NSCLC) was > 100 µM. The TGI (HCC-2998 colon) was > 100 µM, the TGI (HCT-116 colon) was > 100 µM and the TGI (HCT-15 colon) was > 100 µM. The TGI (HL-60(TB) leukemia) was > 100 µM, the TGI (HOP-62 NSCLC) was > 100 µM and the TGI (HOP-92 NSCLC) was 83.9 µM. The TGI (HS 578T breast) was > 100 µM, the TGI (HT29 colon) was > 100 µM and the TGI (IGROV1 ovarian) was > 100 µM. The TGI (K-562 leukemia) was > 100 µM, the TGI (KM12 colon) was > 100 µM and the TGI (LOX IMVI melanoma) was > 100 µM. The TGI (M14 melanoma) was > 100 µM, the TGI (MALME-3M melanoma) was > 100 µM and the TGI (MCF7 breast) was > 100 µM. For the same compound, the TGI (MDA-MB-231 breast) was > 100 µM, the TGI (MDA-MB-435) was > 100 µM and the TGI (MDA-N) was > 100 µM. For the same compound, the TGI (MOLT-4 leukemia) was > 100 µM, the TGI (NCI-H226 lung) was > 100 µM and the TGI (NCI-H23 lung) was > 100 µM. The TGI (NCI-H460 lung) was > 100 µM, the TGI (NCI-H522 lung) was 47.8 µM and the TGI (NCI/ADR-RES ovarian) was > 100 µM. The TGI (OVCAR-3 ovarian) was > 100 µM, the TGI (OVCAR-4 ovarian) was > 100 µM and the TGI (OVCAR-5 ovarian) was > 100 µM. The TGI (OVCAR-8 ovarian) was > 100 µM, the TGI (PC-3 prostate) was > 100 µM and the TGI (RPMI-8226 leukemia) was > 100 µM. The TGI (RXF 393 renal) was > 100 µM, the TGI (SF-268 CNS) was > 100 µM and the TGI (SF-295 CNS) was > 100 µM. For the same compound, the TGI (SF-539 CNS) was > 100 µM, the TGI (SK-MEL-2 melanoma) was > 100 µM and the TGI (SK-MEL-28 melanoma) was > 100 µM. The TGI (SK-MEL-5 melanoma) was > 100 µM, the TGI (SK-OV-3 ovarian) was > 100 µM and the TGI (SN12C renal) was > 100 µM. The TGI (SNB-19 CNS) was > 100 µM, the TGI (SNB-75 CNS) was > 100 µM and the TGI (SR leukemia) was > 100 µM. For the same compound, the TGI (SW-620 colon) was > 100 µM, the TGI (T-47D breast) was > 100 µM and the TGI (TK-10 renal) was > 100 µM. The TGI (U251 CNS) was > 100 µM, the TGI (UACC-257 melanoma) was > 100 µM and the TGI (UACC-62 melanoma) was > 100 µM. For the same compound, the TGI (UO-31 renal) was > 100 µM.

`CCOC(=O)C(NC(C)=O)(Nc1ccc(S(N)(=O)=O)cc1)C(F)(F)F` (configuration not stated) was tested, and the TGI (786-0 renal) was > 100 µM, the TGI (A498 renal) was > 100 µM and the TGI (A549 NSCLC) was > 100 µM. The TGI (ACHN renal) was > 100 µM, the TGI (CAKI-1 renal) was > 100 µM and the TGI (CCRF-CEM leukemia) was > 100 µM. For the same compound, the TGI (COLO 205 colon) was > 100 µM, the TGI (DU-145 prostate) was > 100 µM and the TGI (EKVX NSCLC) was > 100 µM. For the same compound, the TGI (HCC-2998 colon) was > 100 µM, the TGI (HCT-116 colon) was > 100 µM and the TGI (HCT-15 colon) was > 100 µM. For the same compound, the TGI (HL-60(TB) leukemia) was > 100 µM, the TGI (HOP-62 NSCLC) was > 100 µM and the TGI (HOP-92 NSCLC) was > 100 µM. The TGI (HS 578T breast) was > 100 µM, the TGI (HT29 colon) was > 100 µM and the TGI (IGROV1 ovarian) was > 100 µM. The TGI (K-562 leukemia) was > 100 µM, the TGI (KM12 colon) was > 100 µM and the TGI (LOX IMVI melanoma) was > 100 µM. For the same compound, the TGI (M14 melanoma) was > 100 µM, the TGI (MALME-3M melanoma) was > 100 µM and the TGI (MCF7 breast) was > 100 µM. The TGI (MDA-MB-231 breast) was > 100 µM, the TGI (MDA-MB-435) was > 100 µM and the TGI (MDA-N) was > 100 µM. For the same compound, the TGI (MOLT-4 leukemia) was > 100 µM, the TGI (NCI-H226 lung) was > 100 µM and the TGI (NCI-H23 lung) was > 100 µM. The TGI (NCI-H460 lung) was > 100 µM, the TGI (NCI-H522 lung) was > 100 µM and the TGI (NCI/ADR-RES ovarian) was > 100 µM. For the same compound, the TGI (OVCAR-3 ovarian) was > 100 µM, the TGI (OVCAR-4 ovarian) was > 100 µM and the TGI (OVCAR-5 ovarian) was > 100 µM. For the same compound, the TGI (OVCAR-8 ovarian) was > 100 µM, the TGI (PC-3 prostate) was > 100 µM and the TGI (RPMI-8226 leukemia) was > 100 µM. For the same compound, the TGI (RXF 393 renal) was > 100 µM, the TGI (SF-268 CNS) was > 100 µM and the TGI (SF-295 CNS) was > 100 µM. The TGI (SF-539 CNS) was > 100 µM, the TGI (SK-MEL-2 melanoma) was > 100 µM and the TGI (SK-MEL-28 melanoma) was > 100 µM. For the same compound, the TGI (SK-MEL-5 melanoma) was > 100 µM, the TGI (SK-OV-3 ovarian) was > 100 µM and the TGI (SN12C renal) was > 100 µM. The TGI (SNB-19 CNS) was > 100 µM, the TGI (SNB-75 CNS) was > 100 µM and the TGI (SR leukemia) was > 100 µM. The TGI (SW-620 colon) was > 100 µM, the TGI (T-47D breast) was > 100 µM and the TGI (TK-10 renal) was > 100 µM. For the same compound, the TGI (U251 CNS) was > 100 µM, the TGI (UACC-257 melanoma) was > 100 µM and the TGI (UO-31 renal) was > 100 µM.
